Assay results as given in publication PMC7655065, “Effect of 3-subsitution of quinolinehydroxamic acids on selectivity of histone deacetylase isoforms” (Journal of Enzyme Inhibition and Medicinal Chemistry, 2020).
Like-named read-outs stand apart in the source and are kept apart here.

Columns and labels:
A549 cells [1] = test: Sulforhodamine B antiproliferative assay, A549; type: cell-based; settings: Homo sapiens
Description: (§1) All human cancer cells were maintained in RPMI 1640 medium supplemented with 10% FBS and penicillin (100 units/ml)/streptomycin (100 µg/ml)/amphotericin B (0.25 µg/ml). All cells were maintained in humidified air containing 5% CO2 at 37 °C and cultured every 2–3 days. […]
(§2) Cells were seeded at the density of 5000 cells/well into 96-plate overnight. Basal cells were fixed with 10% trichloroacetic acid (TCA) to represent the cell population at the time of compound addition (T0). After additional incubation of DMSO (C) or different doses of test compounds (Tx) for 48 h, cells were fixed with 10% TCA and stained with SRB at 0.4% (w/v) in 1% AcOH. Unbound SRB was washed out using 1% AcOH and SRB bound cells were solubilised with 10 mM Trizma base. The absorbance was read at a wavelength of 515 nm. The 50% growth inhibition (GI50) was calculated by 100 − [(Tx – T0)/(C – T0)] × 100.

HCT116 cells = test: Sulforhodamine B antiproliferative assay, HCT116; type: cell-based; settings: Homo sapiens, HCT-116, SRB, 48 h, values > 10 μM estimated from best curve fitting
Description: as §1, §2

HDAC1 = molecular target: T1, HDAC1 (Homo sapiens, UniProt Q13547); test: HDAC biochemical assay (Fluor-de-Lys), HDAC1; settings: for IC50: human recombinant HDAC1, values > 10 μM estimated from best curve fitting; for Selectivity ratio of HDAC1 over HDAC6: IC50 HDAC1 / IC50 HDAC6
T1 construct: EurofinPanlabs (Taipei, Taiwan)
T1 sequence (Q13547 whole entry): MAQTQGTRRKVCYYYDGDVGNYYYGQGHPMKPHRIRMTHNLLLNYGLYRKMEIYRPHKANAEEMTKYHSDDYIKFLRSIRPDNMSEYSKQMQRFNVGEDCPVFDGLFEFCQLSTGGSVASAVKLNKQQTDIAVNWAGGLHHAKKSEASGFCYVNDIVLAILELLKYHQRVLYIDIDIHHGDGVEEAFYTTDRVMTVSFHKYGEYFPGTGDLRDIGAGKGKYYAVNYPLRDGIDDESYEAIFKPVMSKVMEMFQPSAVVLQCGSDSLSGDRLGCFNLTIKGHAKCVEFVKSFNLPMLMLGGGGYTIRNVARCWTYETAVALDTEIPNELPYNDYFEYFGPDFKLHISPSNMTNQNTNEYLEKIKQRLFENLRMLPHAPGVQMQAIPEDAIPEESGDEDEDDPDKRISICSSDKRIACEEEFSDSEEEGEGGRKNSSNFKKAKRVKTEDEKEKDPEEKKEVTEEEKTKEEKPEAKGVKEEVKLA

HDAC6 = molecular target: T2, HDAC6 (Homo sapiens, UniProt Q9UBN7); test: HDAC biochemical assay (Fluor-de-Lys), HDAC6; settings: human recombinant HDAC6
T2 construct: EurofinPanlabs (Taipei, Taiwan)
T2 sequence (Q9UBN7 1-1215): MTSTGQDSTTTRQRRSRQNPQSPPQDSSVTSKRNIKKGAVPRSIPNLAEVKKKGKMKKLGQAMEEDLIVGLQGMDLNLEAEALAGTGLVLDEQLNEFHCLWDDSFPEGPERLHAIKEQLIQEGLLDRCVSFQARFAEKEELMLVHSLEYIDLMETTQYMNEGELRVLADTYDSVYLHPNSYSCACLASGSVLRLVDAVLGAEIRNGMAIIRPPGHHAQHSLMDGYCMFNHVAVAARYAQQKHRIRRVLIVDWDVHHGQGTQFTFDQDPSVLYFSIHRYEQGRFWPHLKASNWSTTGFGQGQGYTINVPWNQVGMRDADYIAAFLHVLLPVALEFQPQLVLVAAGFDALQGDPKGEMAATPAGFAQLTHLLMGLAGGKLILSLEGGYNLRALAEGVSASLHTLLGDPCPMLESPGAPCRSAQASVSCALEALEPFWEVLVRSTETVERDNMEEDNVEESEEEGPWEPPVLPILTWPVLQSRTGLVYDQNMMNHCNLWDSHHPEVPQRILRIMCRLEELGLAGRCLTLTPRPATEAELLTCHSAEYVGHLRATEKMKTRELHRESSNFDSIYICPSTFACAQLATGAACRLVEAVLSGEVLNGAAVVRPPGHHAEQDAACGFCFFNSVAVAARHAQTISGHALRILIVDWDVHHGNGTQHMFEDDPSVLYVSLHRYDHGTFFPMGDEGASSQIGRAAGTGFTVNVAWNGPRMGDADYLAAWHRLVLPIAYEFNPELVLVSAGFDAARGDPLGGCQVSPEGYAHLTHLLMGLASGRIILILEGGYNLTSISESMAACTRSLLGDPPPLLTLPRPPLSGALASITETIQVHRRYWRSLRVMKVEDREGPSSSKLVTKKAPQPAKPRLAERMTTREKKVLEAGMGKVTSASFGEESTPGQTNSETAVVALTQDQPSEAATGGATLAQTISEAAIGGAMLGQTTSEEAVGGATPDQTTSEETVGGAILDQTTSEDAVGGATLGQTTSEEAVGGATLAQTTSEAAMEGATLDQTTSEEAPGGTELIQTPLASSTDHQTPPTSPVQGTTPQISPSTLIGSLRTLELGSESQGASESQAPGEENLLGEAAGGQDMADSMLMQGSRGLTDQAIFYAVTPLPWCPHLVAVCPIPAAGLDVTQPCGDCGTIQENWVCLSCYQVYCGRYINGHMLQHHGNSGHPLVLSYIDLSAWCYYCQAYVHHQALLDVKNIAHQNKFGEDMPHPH

HDAC8 = molecular target: T3, HDAC8 (Homo sapiens, UniProt Q9BY41); test: HDAC biochemical assay (Fluor-de-Lys), HDAC8; settings: for IC50: human recombinant HDAC8; for Selectivity ratio of HDAC8 over HDAC6: IC50 HDAC8 / IC50 HDAC6
T3 construct: EurofinPanlabs (Taipei, Taiwan)
T3 sequence (Q9BY41 1-377): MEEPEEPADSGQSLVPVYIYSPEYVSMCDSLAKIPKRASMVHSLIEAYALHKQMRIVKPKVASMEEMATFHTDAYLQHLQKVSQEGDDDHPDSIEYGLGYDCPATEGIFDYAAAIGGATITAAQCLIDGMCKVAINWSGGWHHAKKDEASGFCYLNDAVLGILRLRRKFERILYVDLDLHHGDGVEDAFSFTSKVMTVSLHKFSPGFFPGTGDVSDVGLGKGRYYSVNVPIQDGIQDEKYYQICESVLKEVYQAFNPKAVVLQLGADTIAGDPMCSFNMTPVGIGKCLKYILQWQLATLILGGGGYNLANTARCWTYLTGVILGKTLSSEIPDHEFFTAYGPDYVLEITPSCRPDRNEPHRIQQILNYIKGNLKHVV

HDAC2 = molecular target: T4, HDAC2 (Homo sapiens, UniProt Q92769); test: HDAC biochemical assay (Fluor-de-Lys), HDAC2; settings: for IC50: human recombinant HDAC2, dash = no inhibition or activity that could not be fitted to an IC50 curve; for Selectivity ratio of HDAC2 over HDAC6: IC50 HDAC2 / IC50 HDAC6
T4 construct: EurofinPanlabs (Taipei, Taiwan)
T4 sequence (Q92769 whole entry): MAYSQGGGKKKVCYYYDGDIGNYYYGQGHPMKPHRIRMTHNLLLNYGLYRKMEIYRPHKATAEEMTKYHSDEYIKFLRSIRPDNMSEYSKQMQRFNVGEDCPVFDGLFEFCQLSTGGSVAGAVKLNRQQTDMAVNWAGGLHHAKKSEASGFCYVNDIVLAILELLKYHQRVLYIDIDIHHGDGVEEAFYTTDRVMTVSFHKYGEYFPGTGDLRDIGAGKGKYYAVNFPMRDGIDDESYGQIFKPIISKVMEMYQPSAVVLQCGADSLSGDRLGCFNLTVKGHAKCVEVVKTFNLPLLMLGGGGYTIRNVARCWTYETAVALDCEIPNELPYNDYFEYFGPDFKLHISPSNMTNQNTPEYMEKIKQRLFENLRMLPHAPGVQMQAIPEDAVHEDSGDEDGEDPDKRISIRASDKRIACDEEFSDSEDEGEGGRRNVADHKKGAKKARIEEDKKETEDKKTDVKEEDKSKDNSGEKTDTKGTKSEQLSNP

A549 cells [2] = test: Western blot analysis of apoptosis and DNA damage markers; type: cell-based, human
Description: buffer (20 mMTris-HCl pH 7.5, 150 mM NaCl, 1 mM Na2EDTA, 1 mM EGTA, 1% NP-40, 1% sodium deoxycholate, 0.1% SDS, 2.5 mM β-glycerylphosphate, 1 mM Na4P2O7, 5 mM NaF, 1 mM Na3VO4 and protease inhibitor cocktail from Millipore) on ice for 30 min following by centrifugation at 13000 rpm for 30 min. Protein concentrations were determined and equal amounts of protein were separated by 8–15% sodium dodecyl sulphate-polyacrylamide gel electrophoresis (SDS–PAGE) and transferred to poly(vinylidene difluoride) (PVDF) membranes. Membranes were immunoblotted with specific antibodies overnight at 4 °C and then applied to appropriate horseradish peroxidase-conjugated anti-mouse or anti-rabbit IgG secondary antibodies for 1 h at RT. Signals were detected using an enhanced chemiluminescence (Amersham, Buckinghamshire, UK).

A549 cells [3] = test: Flow cytometry cell cycle analysis; type: cell-based, human; settings: A549 cells, 0.25, 0.5, 10 μM, 48 h, propidium iodide
Description: Briefly, A549 cells were starved with EBM-2 medium overnight and were subsequently replenished with EGM-2 medium with or without 17, 25, and 26 (0.25, 0.5, 10 µM) for 48 h. After being trypsinized and fixed in ice-cold 75% MeOH for 1 h at −20 °C, A549 cells were washed with PBS and resuspended in 0.2 ml DNA extraction buffer (0.2 M Na2HPO4, 0.1 M citric acid; pH 7.8) for 30 min. Then the cells were stained with propidium iodide solution (PI; 100 µg/ml RNase, 80 µg/ml propidium iodide, 0.1% Triton X-100) in PBS. FACScan flow cytometry was utilised to determine cell cycle distribution, and data analysis was performed with CellQuest software (BD Biosciences).

[4] = A549 cells, SRB, 48 h, values > 10 μM estimated from best curve fitting, read-out: Antiproliferative activity IC50, A549

Compound	IC50 (A549 cells [1]; [4])	IC50 (HCT116 cells)	IC50 (HDAC1)	IC50 (HDAC6)	IC50 (HDAC8)	IC50 (HDAC2)	Rank of efficacy in cleaving caspase isoforms (Western blot) (A549 cells [2]; A549 cells, 48 h, comparison among the three tested compounds)	Selectivity ratio of HDAC1 over HDAC6 (HDAC1)	Selectivity ratio of HDAC2 over HDAC6 (HDAC2)	Selectivity ratio of HDAC8 over HDAC6 (HDAC8)	IC50 (A549 cells [1]; range over both cell lines (A549 and HCT116) and both compounds, abstract, read-out: IC50 values against A549 and HCT116 cells)	Caspase 3, 8, and 9 cleavage (Western blot) (A549 cells [2]; A549 cells treated for 48 h, 0.25, 5 and 10 µM)	Cell cycle distribution, sub G1 population (A549 cells [3])
O=C(NO)c1ccc(CNc2cccc3cc(Cl)cnc23)cc1 [Compound 14, 4-[(3-Chloro-quinolin-8-ylamino)-methyl]-N-hydroxy-benzamide]	3.14 ± 0.31 µM	4.82 ± 0.29 µM	4.32 µM	0.0202 µM	3.64 µM	–	–	–	–	–	–	–	–
O=C(NO)c1ccc(CNc2cccc3cc(Br)cnc23)cc1 [Compound 15, 4-[(3-Bromo-quinolin-8-ylamino)-methyl]-N-hydroxy-benzamide]	> 10 µM	> 10 µM	–	–	–	–	–	–	–	–	–	–	–
O=C(NO)c1ccc(CNc2cccc3cc(I)cnc23)cc1 [Compound 16, N-Hydroxy-4-[(3-iodo-quinolin-8-ylamino)-methyl]-benzamide]	3.41 ± 0.9 µM	4.79 ± 0.47 µM	–	–	–	–	–	–	–	–	–	–	–
COc1cnc2c(NCc3ccc(C(=O)NO)cc3)cccc2c1 [Compound 17, N-Hydroxy-4-[(3-methoxy-quinolin-8-ylamino)-methyl]-benzamide]	3.11 ± 0.24 µM	4.76 ± 0.43 µM	4.95 µM	0.00779 µM	2.76 µM	> 10 µM	least potent amongst these three compounds	–	–	–	–	–	–
COc1ccccc1-c1cnc2c(NCc3ccc(C(=O)NO)cc3)cccc2c1 [Compound 19, N-Hydroxy-4-(((3–(2-methoxyphenyl)quinolin-8-yl)amino)methyl)benzamide]	> 10 µM	7.19 ± 0.77 µM	–	–	–	–	–	–	–	–	–	–	–
COc1ccc(-c2cnc3c(NCc4ccc(C(=O)NO)cc4)cccc3c2)cc1 [Compound 20, N-Hydroxy-4-(((3–(4-methoxyphenyl)quinolin-8-yl)amino)methyl)benzamide]	9.1 ± 0.3 µM	> 10 µM	–	–	–	–	–	–	–	–	–	–	–
N#Cc1ccccc1-c1cnc2c(NCc3ccc(C(=O)NO)cc3)cccc2c1 [Compound 21, 4-(((3–(2-Cyanophenyl)quinolin-8-yl)amino)methyl)-N-hydroxybenzamide amide]	8.65 ± 2.35 µM	6 ± 1.56 µM	–	–	–	–	–	–	–	–	–	–	–
N#Cc1cccc(-c2cnc3c(NCc4ccc(C(=O)NO)cc4)cccc3c2)c1 [Compound 22, 4-(((3–(3-Cyanophenyl)quinolin-8-yl)amino)methyl)-N-hydroxybenzamide]	2.04 ± 0.35 µM	3.18 ± 0.16 µM	9.11 µM	0.0362 µM	3.83 µM	1.98 µM	–	(252)	(55)	(106)	–	–	–
N#Cc1ccc(-c2cnc3c(NCc4ccc(C(=O)NO)cc4)cccc3c2)cc1 [Compound 23, 4-(((3–(4-Cyanophenyl)quinolin-8-yl)amino)methyl)-N-hydroxybenzamide]	3.64 ± 0.66 µM	3.5 ± 0.32 µM	–	–	–	–	–	–	–	–	–	–	–
O=C(NO)c1ccc(CNc2cccc3cc(-c4cccc([N+](=O)[O-])c4)cnc23)cc1 [Compound 24, N-Hydroxy-4-(((3–(3-nitrophenyl)quinolin-8-yl)amino)methyl)benzamide]	4.05 ± 0.42 µM	2.88 ± 0.21 µM	–	–	–	–	–	–	–	–	–	–	–
O=C(NO)c1ccc(CNc2cccc3cc(-c4cccnc4)cnc23)cc1 [Compound 25, N-Hydroxy-4-(((3-(pyridin-3-yl)quinolin-8-yl)amino)methyl)benzamide]	1.29 ± 0.41 µM	1.61 ± 0.22 µM	2.62 µM	0.00475 µM	1.8 µM	1.31 µM	–	(552)	(276)	(379)	1.29 to 2.13 µM	dose dependent increases in caspase 3, 8, and 9 cleavage	concentration dependent accumulation of A549 cells in sub G1 phase
O=C(NO)c1ccc(CNc2cccc3cc(-c4ccco4)cnc23)cc1 [Compound 27, 4-(((3-(Furan-2-yl)quinolin-8-yl)amino)methyl)-N-hydroxybenzamide]	3.18 ± 0.19 µM	2.2 ± 0.17 µM	3.4 µM	0.0207 µM	3.14 µM	1.28 µM	–	(164)	(62)	(152)	–	–	–
O=C(NO)c1ccc(CNc2cccc3cc(-c4ccoc4)cnc23)cc1 [Compound 28, 4-(((3-(Furan-3-yl)quinolin-8-yl)amino)methyl)-N-hydroxybenzamide]	3.77 ± 0.28 µM	3.77 ± 0.21 µM	4.59 µM	0.0134 µM	2.91 µM	2.1 µM	–	(343)	(157)	(216)	–	–	–
O=C(NO)c1ccc(CNc2cccc3cc(-c4ccsc4)cnc23)cc1 [Compound 29, N-Hydroxy-4-(((3-(thiophen-3-yl)quinolin-8-yl)amino)methyl)benzamide]	3.84 ± 0.4 µM	3.59 ± 0.51 µM	6 µM	0.0301 µM	4.93 µM	3.52 µM	–	(199)	(117)	(164)	–	–	–
